“And” between values parts separate entries of the source, which are not always exact repeats. Identical values can stand only once.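 Each compound was tested at five concentrations against cells in 96-well plates for 48 hours. GI50 is the concentration that inhibits growth by half. TGI: concentration producing complete growth inhibition.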
Assays:
Test in all cases: NCI-60 cell line screen, 48 h
SK-MEL-28 melanoma = system: SK-MEL-28 melanoma
HCT-15 colon = system: HCT-15 colon
RXF 393 renal = system: RXF 393 renal
BT-549 breast = system: BT-549 breast
SK-MEL-2 melanoma = system: SK-MEL-2 melanoma
NCI/ADR-RES ovarian = system: NCI/ADR-RES ovarian
HT29 colon = system: HT29 colon
HOP-62 NSCLC = system: HOP-62 NSCLC
OVCAR-5 ovarian = system: OVCAR-5 ovarian
786-0 renal = system: 786-0 renal

SMILES | GI50 (SK-MEL-28 melanoma) | TGI (SK-MEL-28 melanoma) | GI50 (HCT-15 colon) | TGI (HCT-15 colon) | GI50 (RXF 393 renal) | TGI (RXF 393 renal) | GI50 (BT-549 breast) | TGI (BT-549 breast) | GI50 (SK-MEL-2 melanoma) | TGI (SK-MEL-2 melanoma) | GI50 (NCI/ADR-RES ovarian) | TGI (NCI/ADR-RES ovarian) | GI50 (HT29 colon) | TGI (HT29 colon) | GI50 (HOP-62 NSCLC) | TGI (HOP-62 NSCLC) | GI50 (OVCAR-5 ovarian) | TGI (OVCAR-5 ovarian) | GI50 (786-0 renal) | TGI (786-0 renal)
CCOc1cc(Br)c(C(C)NC(=O)c2cccc(OC)c2)cc1OCC (stereo not given) | 12 µM | > 100 µM | 5.82 µM | > 100 µM | 12.6 µM | > 100 µM | 13.2 µM | > 84.1 µM | 5.54 µM | > 76.7 µM | 5.71 µM | > 100 µM | 5.01 µM | > 100 µM | 10.6 µM | > 100 µM | 25.4 µM | > 100 µM | 20.4 µM | > 100 µM
O=C1C2=C(c3ccccc31)C(c1ccccc1)N1C(=O)CSC1=N2 (stereo not given) |  | > 100 µM |  | 98.1 µM |  | 60.5 µM |  | 66.5 µM |  | > 100 µM |  | 59.1 µM |  | 96.9 µM |  | > 100 µM |  | > 100 µM |  | > 100 µM
COc1ccc2c(c1)CC[C@@H]1[C@@H]2CC[C@]2(C)[C@@H](NC(=O)/C=C/c3ccc(O)c(O)c3)CC[C@@H]12 | 18.5 µM | > 100 µM | 3.2 µM | 15.4 µM | 7.94 µM | 46 µM | 5.56 µM | 20.3 µM | 2.77 µM | 11.7 µM | 2 µM | 6.05 µM | 4.74 µM | > 100 µM | 3.03 µM | 11.1 µM | 6.37 µM | 20.7 µM | 2.34 µM | 5.48 µM
COc1ccccc1C1=C(Nc2ccccc2)C(=O)NC1=O | > 25 µM | > 25 µM | > 25 µM | > 25 µM | 7.87 µM | > 25 µM | > 25 µM | > 25 µM | > 25 µM | > 25 µM | > 25 µM | > 25 µM | > 25 µM | > 25 µM | > 25 µM | > 25 µM | > 25 µM | > 25 µM | > 25 µM | > 25 µM
CC(C)(C)c1ccc(OC(=O)Nc2ccc(O)c(C(=O)O)c2)cc1 |  | > 100 µM |  | > 100 µM |  | > 100 µM |  | > 100 µM |  | > 100 µM |  | > 100 µM |  | > 100 µM |  | > 100 µM |  | > 100 µM |  | > 100 µM
COc1cccc(CSCC(=O)O)c1 |  | > 100 µM |  | > 100 µM |  | > 100 µM |  | > 100 µM |  | > 100 µM |  | > 100 µM |  | > 100 µM |  | > 100 µM |  | > 100 µM |  | > 100 µM
CC(=O)N1N=C(c2ccc(Nc3ccnc4cc(Cl)ccc34)cc2)CC1c1ccc(Cl)cc1 (stereo not given) | 4.88 µM | > 100 µM | 3.33 µM | > 100 µM | 5.07 µM | > 100 µM | 5.4 µM | > 100 µM | > 100 µM | > 100 µM | 3.04 µM | > 100 µM | 5.4 µM | > 100 µM | > 100 µM | > 100 µM | > 100 µM | > 100 µM | > 100 µM | > 100 µM
COc1ccc(/C=c2\sc3n(c2=O)C2C(NN=3)N(C)C(=O)N2C)cc1 (stereo not given) | 2.27 µM | > 100 µM | 0.428 µM | > 100 µM | 0.603 µM | 2.75 µM | 0.589 µM | > 100 µM | 2.31 µM | > 100 µM | 0.579 µM | > 40.9 µM | 0.56 µM | > 100 µM | 1.29 µM | > 100 µM | 2.25 µM | > 100 µM | 0.492 µM | > 100 µM
O=[N+]([O-])c1ccc(Oc2nc(Nc3ccc(O[C@H]4CO[C@H]5[C@@H]4OC[C@@H]5O)c(Cl)c3)ncc2F)c(Cl)c1 | 1.55 µM | 4.78 µM | 2.37 µM | 10.7 µM | 0.787 µM | 2.91 µM | 1.29 µM | 3.36 µM | 0.483 µM | 2.04 µM | 9.04 µM | > 100 µM | 2.43 µM | 11.7 µM | 1.63 µM | 4.65 µM | 2.33 µM | 16.8 µM | 1.3 µM | 4.24 µM
Nc1nc(N)c(C=Nc2ccc(Br)cc2)c(Nc2ccc(Br)cc2)n1 | 12.3 µM | 24.7 µM | 7.44 µM | 34.4 µM | 2.89 µM | 13.6 µM | 12.9 µM | 25.5 µM | 10.2 µM | 23 µM | 5.54 µM | 26.3 µM | 5.81 µM | > 100 µM | 10.5 µM | 22.5 µM | 9.98 µM | 21.5 µM | 11.1 µM | 23 µM
CC(=O)OC1=CC2=CC[C@H]3[C@@H]4CCC(=O)[C@@]4(C)CC(=O)[C@]3(S)[C@@]2(C)CC1 |  | > 100 µM |  | > 100 µM |  | 39.7 µM |  | > 100 µM |  | > 100 µM |  | > 100 µM |  | > 100 µM |  | > 100 µM |  | > 100 µM |  | 87 µM
COc1ccc(S(=O)(=O)NC2=NCCN2C(=S)SN2CCn3c2nsc3=S)cc1 | 21.1 µM | 65.1 µM | 20.8 µM | 58.9 µM | 4.11 µM | 22.1 µM | 10.4 µM | 23.5 µM | 17.6 µM | 51.3 µM | 32.5 µM | > 100 µM | 32.4 µM | > 100 µM | 18.9 µM | 39.2 µM | 17.3 µM | 33.3 µM | 20.2 µM | 35.4 µM
CC1=C(/C=C/C(C)=C/C=C/C(C)=C/C=N/NC(=S)NC(=S)N/N=C/C=C(C)/C=C/C=C(C)/C=C/C2=C(C)CCCC2(C)C)C(C)(C)CCC1 | 3.23 µM and 1.85 µM | 9.12 µM and 6.78 µM | 2.68 µM and 1.89 µM | 9.82 µM and 8.2 µM | 0.935 µM and 0.847 µM | 1.87 µM and 1.58 µM | 4.85 µM and 1.69 µM | 11.5 µM and 4.77 µM | 5.79 µM and 1.82 µM | 12.5 µM and 6.97 µM | 1.76 µM and 1.56 µM | 6.61 µM and 5.46 µM | 1.91 µM and 1.07 µM | 8.83 µM and 3.69 µM | 3.84 µM and 2.42 µM | 11.3 µM and 5 µM | 3.49 µM and 2.84 µM | 9.72 µM and 8.04 µM | 1.75 µM and 0.944 µM | 5.09 µM and 1.85 µM

Source: PubChem BioAssay (NCI)
